# Experimental data reported in publication PMC5548886 (Cancer Medicine, 2017).
# Where two headings read alike, the source gives them in different places.
# Test: Pharmacokinetics, unchanged RAF265 in plasma
# Type: in vivo, human
# Settings: for Cmin, Mean (SD): Steady State (average of troughs from Cycle 2 Day 1 onwards); for AUC(0-t) / Cmax / Tmax / half-life: human, plasma, oral; for AUC(0-t): read-out: AUC(0-tlast), Mean (SD); for Cmax: read-out: Cmax, Mean (SD); for Tmax: read-out: Tmax, Median
# Experimental: PK parameters included the maximum observed concentration (C max), time to reach C max (T max), area under the curve from time 0 to last measurable concentration (AUClast), time point of the last measurable concentration (T last), and terminal half‐life of elimination phase (T 1/2). Cycle 1 Day 1 and day 15, reported PK parameters include C max, T max, AUClast and T last. Following log‐transformation, the PK parameters AUC and C max from the PK run‐in were analyzed separately using a mixed effects model fitting terms for dose and patient (Patient treated as a random factor)‐ln(PK parameter) = a + b*ln(Dose)+error. In this model, the dose‐exposure relationship is mainly characterized by the slope parameter b. A slope lower (higher) than 1 indicates an under (over) proportional dose‐exposure relationship. The point estimate and associated 90% CI for the slope parameter were determined for safety considerations.
# [1] = 2 mg, Cycle 1 Day 15, DL 1, MD 2 mg
# [2] = 3 mg, Cycle 1 Day 15, DL 2, MD 3 mg
# [3] = 6 mg, Cycle 1 Day 15, DL 3, MD 6 mg
# [4] = 8 mg, Cycle 1 Day 1, DL 1, LD 8 mg
# [5] = 10 mg, First dose (PK run-in), DL 1, 10 mg
# [6] = 12 mg, Cycle 1 Day 15, DL 4, MD 12 mg
# [7] = 16 mg, Cycle 1 Day 1, DL 2, LD 16 mg
# [8] = 20 mg, First dose (PK run-in), DL 2, 20 mg
# [9] = 24 mg, Cycle 1 Day 15, DL 5, MD 24 mg
# [10] = 29 mg, Cycle 1 Day 1, DL 3, LD 29 mg
# [11] = 36 mg, First dose (PK run-in), DL 3, 36 mg
# [12] = 48 mg, Cycle 1 Day 15, DL 6, MD 48 mg
# [13] = 58 mg, Cycle 1 Day 1, DL 4, LD 58 mg
# [14] = 67 mg, Cycle 1 Day 15, DL 7, MD 67 mg
# [15] = 67 mg, Cycle 1 Day 15, DL 7.1, MD 67 mg
# [16] = 72 mg, First dose (PK run-in), DL 4, 72 mg
# [17] = 115 mg, Cycle 1 Day 1, DL 5, LD 115 mg
# [18] = 144 mg, First dose (PK run-in), DL 5, 144 mg
# [19] = 230 mg, Cycle 1 Day 1, DL 6, LD 230 mg
# [20] = 288 mg, Cycle 1 Day 1, DL 7.1, LD 288 mg as three doses
# [21] = 288 mg, First dose (PK run-in), DL 6, 288 mg
# [22] = 322 mg, Cycle 1 Day 1, DL 7, LD 322 mg
# [23] = 403 mg, First dose (PK run-in), DL 7, 403 mg
structure (smiles),measurement,setting,value
Cn1c(Nc2ccc(C(F)(F)F)cc2)nc2cc(Oc3ccnc(-c4ncc(C(F)(F)F)[nH]4)c3)ccc21 [RAF265],"Tlast, Median","Cycle 1 Day 1, DL 1, LD 8 mg",25 h
same,"Tlast, Median","Cycle 1 Day 1, DL 2, LD 16 mg",22.9 h
same,"Tlast, Median","Cycle 1 Day 1, DL 3, LD 29 mg",23.8 h
same,"Tlast, Median","Cycle 1 Day 1, DL 4, LD 58 mg",24.4 h
same,"Tlast, Median","Cycle 1 Day 1, DL 5, LD 115 mg",24 h
same,"Tlast, Median","Cycle 1 Day 1, DL 6, LD 230 mg",24.1 h
same,"Tlast, Median","Cycle 1 Day 1, DL 7, LD 322 mg",24 h
same,"Tlast, Median","Cycle 1 Day 1, DL 7.1, LD 288 mg as three doses",23.8 h
same,"Tlast, Median","Cycle 1 Day 15, DL 1, MD 2 mg",25.3 h
same,"Tlast, Median","Cycle 1 Day 15, DL 2, MD 3 mg",22.5 h
same,"Tlast, Median","Cycle 1 Day 15, DL 3, MD 6 mg",24.1 h
same,"Tlast, Median","Cycle 1 Day 15, DL 4, MD 12 mg",24 h
same,"Tlast, Median","Cycle 1 Day 15, DL 5, MD 24 mg",24 h
same,"Tlast, Median","Cycle 1 Day 15, DL 6, MD 48 mg",23.7 h
same,"Tlast, Median","Cycle 1 Day 15, DL 7, MD 67 mg",23.4 h
same,"Tlast, Median","Cycle 1 Day 15, DL 7.1, MD 67 mg",23.8 h
same,"Tlast, Median","First dose (PK run-in), DL 1, 10 mg",168 h
same,"Tlast, Median","First dose (PK run-in), DL 2, 20 mg",168 h
same,"Tlast, Median","First dose (PK run-in), DL 3, 36 mg",168 h
same,"Tlast, Median","First dose (PK run-in), DL 4, 72 mg",167 h
same,"Tlast, Median","First dose (PK run-in), DL 5, 144 mg",167 h
same,"Tlast, Median","First dose (PK run-in), DL 6, 288 mg",167 h
same,"Tlast, Median","First dose (PK run-in), DL 7, 403 mg",168 h
same,"Cmin, Mean (SD)","DL 1, MD 2 mg",1.23 (0.22) ug/mL
same,"Cmin, Mean (SD)","DL 2, MD 3 mg",1.51 (0.82) ug/mL
same,"Cmin, Mean (SD)","DL 3, MD 6 mg",1.82 (0.28) ug/mL
same,"Cmin, Mean (SD)","DL 4, MD 12 mg",4.31 (1.22) ug/mL
same,"Cmin, Mean (SD)","DL 5, MD 24 mg",7.31 (1.99) ug/mL
same,"Cmin, Mean (SD)","DL 6, MD 48 mg",13.1 (5.57) ug/mL
same,"Cmin, Mean (SD)","DL 7, MD 67 mg",21.8 (3.76) ug/mL
same,"Cmin, Mean (SD)","DL 7.1, MD 67 mg",15.5 (7.47) ug/mL
same,dose dependence of mean Cmax and AUC,across dose levels,increased nearly proportionally with dose
same,AUC(0-t),[1],2670 ng·h/mL
same,Cmax,[1],130 ng/mL
same,Tmax,[1],3 h
same,AUC(0-t),[2],2300 ng·h/mL
same,Cmax,[2],120 ng/mL
same,Tmax,[2],3.07 h
same,AUC(0-t),[3],4150 ng·h/mL
same,Cmax,[3],200 ng/mL
same,Tmax,[3],2.52 h
same,AUC(0-t),[4],2080 ng·h/mL
same,Cmax,[4],140 ng/mL
same,Tmax,[4],4 h
same,AUC(0-t),[5],6200 ng·h/mL
same,Cmax,[5],140 ng/mL
same,half-life,"10 mg, First dose (PK run-in), DL 1, 10 mg, read-out: T1/2, Median (converted)",287 h
same,Tmax,[5],3 h
same,AUC(0-t),[6],8590 ng·h/mL
same,Cmax,[6],420 ng/mL
same,Tmax,[6],5.13 h
same,AUC(0-t),[7],2650 ng·h/mL
same,Cmax,[7],170 ng/mL
same,Tmax,[7],3 h
same,AUC(0-t),[8],8770 ng·h/mL
same,Cmax,[8],150 ng/mL
same,half-life,"20 mg, First dose (PK run-in), DL 2, 20 mg, read-out: T1/2, Median (converted)",209 h
same,Tmax,[8],2 h
same,AUC(0-t),[9],16100 ng·h/mL
same,Cmax,[9],850 ng/mL
same,Tmax,[9],2.75 h
same,AUC(0-t),[10],3930 ng·h/mL
same,Cmax,[10],276 ng/mL
same,Tmax,[10],3.53 h
same,AUC(0-t),[11],12100 ng·h/mL
same,Cmax,[11],260 ng/mL
same,half-life,"36 mg, First dose (PK run-in), DL 3, 36 mg, read-out: T1/2, Median (converted)",127 h
same,Tmax,[11],2.52 h
same,AUC(0-t),[12],28500 ng·h/mL
same,Cmax,[12],1650 ng/mL
same,Tmax,[12],3.93 h
same,AUC(0-t),[13],7280 ng·h/mL
same,Cmax,[13],500 ng/mL
same,Tmax,[13],3 h
same,AUC(0-t),[14],46800 ng·h/mL
same,Cmax,[14],2650 ng/mL
same,Tmax,[14],4 h
same,AUC(0-t),[15],35400 ng·h/mL
same,Cmax,[15],1830 ng/mL
same,Tmax,[15],3 h
same,AUC(0-t),[16],22600 ng·h/mL
same,Cmax,[16],540 ng/mL
same,half-life,"72 mg, First dose (PK run-in), DL 4, 72 mg, read-out: T1/2, Median (converted)",174 h
same,Tmax,[16],2.01 h
same,AUC(0-t),[17],15700 ng·h/mL
same,Cmax,[17],1070 ng/mL
same,Tmax,[17],2 h
same,AUC(0-t),[18],51800 ng·h/mL
same,Cmax,[18],1060 ng/mL
same,half-life,"144 mg, First dose (PK run-in), DL 5, 144 mg, read-out: T1/2, Median (converted)",182 h
same,Tmax,[18],2.15 h
same,AUC(0-t),[19],28100 ng·h/mL
same,Cmax,[19],2250 ng/mL
same,Tmax,[19],2.58 h
same,AUC(0-t),[20],18400 ng·h/mL
same,Cmax,[20],1130 ng/mL
same,Tmax,[20],22.3 h
same,AUC(0-t),[21],99800 ng·h/mL
same,Cmax,[21],2310 ng/mL
same,half-life,"288 mg, First dose (PK run-in), DL 6, 288 mg, read-out: T1/2, Median (converted)",183 h
same,Tmax,[21],3 h
same,AUC(0-t),[22],39000 ng·h/mL
same,Cmax,[22],2720 ng/mL
same,Tmax,[22],3 h
same,AUC(0-t),[23],137000 ng·h/mL
same,Cmax,[23],2680 ng/mL
same,half-life,"403 mg, First dose (PK run-in), DL 7, 403 mg, read-out: T1/2, Median (converted)",294 h
same,Tmax,[23],3 h
same,half-life,"patients, read-out: half-life (converted)",~192 h
same,half-life,"patients, read-out: serum half-life (converted)",~200 h
